Data on 16 molecules can be found in PubChem BioAssay AID248 (DTP/NCI, 2004).

Several values for one entry are separate records, joined by “and”; a condition that tells them apart may be missing. Equal entries are not always repeated. Inconclusive results and toxic doses are left out.

This test deals with L1210 leukemia ip in BDF1 mice, survival T/C. As to the kind of experiment: NCI In Vivo Anticancer Drug Screen. Data for tumor model L1210 Leukemia (intraperitoneal) in B6D2F1 (BDF1) mice. Particulars: endpoint: mean survival time, higher = longer survival. Summed up: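 Survival endpoint. Drug-treated group vs vehicle group, expressed as T divided by C. Tumor passaged by transplantation.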

Setting [1] is: dose: 100.0 mg/kg/injection, schedule: Q04DX003 (ip), vehicle: saline with Tween-80.
[2] abbreviates: dose: 200.0 mg/kg/injection, schedule: Q04DX003 (ip), vehicle: saline with Tween-80.
[3] abbreviates: dose: 400.0 mg/kg/injection, schedule: Q04DX003 (ip), vehicle: saline with Tween-80.
Setting [4] is: dose: 100.0 mg/kg/injection, schedule: Q01DX001 (ip), vehicle: saline with Tween-80.
The mark [5] stands for this setting: dose: 200.0 mg/kg/injection, schedule: Q01DX001 (ip), vehicle: saline with Tween-80.
The mark [6] stands for this setting: dose: 400.0 mg/kg/injection, schedule: Q01DX001 (ip), vehicle: saline with Tween-80.
[7] abbreviates: dose: 100.0 mg/kg/injection, schedule: Q01DX009 (ip), vehicle: carboxymethylcellulose (CMC).
[8] abbreviates: dose: 200.0 mg/kg/injection, schedule: Q01DX009 (ip), vehicle: carboxymethylcellulose (CMC).
[9] abbreviates: dose: 400.0 mg/kg/injection, schedule: Q01DX009 (ip), vehicle: carboxymethylcellulose (CMC).
[10] abbreviates: dose: 100.0 mg/kg/injection, schedule: Q01DX001 (ip), vehicle: other.

As to `O=P1(Cc2ccccc2)CC(Br)C(Br)C1` (stereo unspecified), the T/C (dose: 100.0 mg/kg/injection, schedule: Q04DX003 (ip), vehicle: other) was 101 % of control; the T/C (dose: 200.0 mg/kg/injection, schedule: Q04DX003 (ip), vehicle: other) was 101 % of control; the T/C (dose: 400.0 mg/kg/injection, schedule: Q04DX003 (ip), vehicle: other) was 101 % of control.

As for `CCOC(OCC)C(=O)OCC(=O)[C@]1(O)Cc2c(O)c3c(c(O)c2[C@@H](OC2CC(N)C(O)C(C)O2)C1)C(=O)c1c(OC)cccc1C3=O` (stereo partly specified), the T/C reads like this: (dose: 0.25 mg/kg/injection, schedule: Q01DX009 (ip), vehicle: saline) 118 % of control; (dose: 2.0 mg/kg/injection, schedule: Q01DX009 (ip), vehicle: saline) 182 % of control; (dose: 4.0 mg/kg/injection, schedule: Q01DX009 (ip), vehicle: saline) 90 % of control.

Turning to `Cc1ccc(S(=O)(=O)Nc2ccc3nc(C)oc3c2)cc1`, the T/C (dose: 100.0 mg/kg/injection, schedule: Q01DX009 (ip), vehicle: saline with Tween-80) is 100 % of control; the T/C under setting [1] is 96 % of control; the T/C (dose: 200.0 mg/kg/injection, schedule: Q01DX009 (ip), vehicle: saline with Tween-80) was 102 % of control; the T/C under setting [2] was 91 % of control; the T/C (dose: 400.0 mg/kg/injection, schedule: Q01DX009 (ip), vehicle: saline with Tween-80) was 93 % of control; the T/C under setting [3] is 89 % of control.

For the molecule `Nc1nc2ncsc2c(=O)[nH]1`, the T/C was 89 % of control under setting [4], 89 % of control under setting [5] and 102 % of control under setting [6].

On to `CC(=O)Oc1c(C2CCCCC2)cc([N+](=O)[O-])cc1[N+](=O)[O-]`, for which the T/C (dose: 100.0 mg/kg/injection, schedule: Q04DX003 (ip), vehicle: Klucel (hydroxypropylcellulose) (HPC)) is 94 % of control and the T/C (dose: 200.0 mg/kg/injection, schedule: Q04DX003 (ip), vehicle: Klucel (hydroxypropylcellulose) (HPC)) is 101 % of control.

`CC(C)(C)c1ccccc1OC(=O)Nc1ccc(F)cc1`: the T/C (dose: 100.0 mg/kg/injection, schedule: Q01DX001 (ip), vehicle: carboxymethylcellulose (CMC)) was 98 % of control; the T/C under setting [7] was 95 % of control and 97 % of control; the T/C (dose: 100.0 mg/kg/injection, schedule: Q04DX002 (ip), vehicle: carboxymethylcellulose (CMC)) is 94 % of control and 96 % of control and 106 % of control; the T/C (dose: 100.0 mg/kg/injection, schedule: Q04DX003 (ip), vehicle: carboxymethylcellulose (CMC)) is 97 % of control; the T/C (dose: 200.0 mg/kg/injection, schedule: Q01DX001 (ip), vehicle: carboxymethylcellulose (CMC)) is 104 % of control; the T/C under setting [8] was 105 % of control. Besides, the T/C by setting is: (dose: 200.0 mg/kg/injection, schedule: Q04DX002 (ip), vehicle: carboxymethylcellulose (CMC)) 97 % of control and 98 % of control (2×); (dose: 200.0 mg/kg/injection, schedule: Q04DX003 (ip), vehicle: carboxymethylcellulose (CMC)) 97 % of control; (dose: 400.0 mg/kg/injection, schedule: Q01DX001 (ip), vehicle: carboxymethylcellulose (CMC)) 101 % of control; under setting [9], 103 % of control; (dose: 400.0 mg/kg/injection, schedule: Q04DX002 (ip), vehicle: carboxymethylcellulose (CMC)) 92 % of control and 94 % of control and 98 % of control; (dose: 400.0 mg/kg/injection, schedule: Q04DX003 (ip), vehicle: carboxymethylcellulose (CMC)) 91 % of control.

Regarding `CCCC(=O)OCC1OC(n2ccc(N)nc2=O)C(O)C1OC(=O)CCC` (stereo unspecified), the T/C reads like this: (dose: 60.0 mg/kg/injection, schedule: Q01DX005 (ip), vehicle: Klucel (hydroxypropylcellulose) (HPC)) 183 % of control; (dose: 90.0 mg/kg/injection, schedule: Q01DX005 (ip), vehicle: Klucel (hydroxypropylcellulose) (HPC)) 152 % of control; (dose: 134.0 mg/kg/injection, schedule: Q01DX005 (ip), vehicle: Klucel (hydroxypropylcellulose) (HPC)) 158 % of control; (dose: 200.0 mg/kg/injection, schedule: Q01DX005 (ip), vehicle: Klucel (hydroxypropylcellulose) (HPC)) 162 % of control and 170 % of control.

For `S=c1nc[nH]c2n[nH]nc12`, the T/C is 104 % of control (dose: 12.5 mg/kg/injection, schedule: Q01DX001 (ip), vehicle: saline with Tween-80); 103 % of control (dose: 25.0 mg/kg/injection, schedule: Q01DX001 (ip), vehicle: saline with Tween-80); 98 % of control (dose: 50.0 mg/kg/injection, schedule: Q01DX001 (ip), vehicle: saline with Tween-80); 98 % of control under setting [4]; 101 % of control under setting [5]; 103 % of control under setting [6].

For the molecule `COc1cc(C(=O)O)ccc1N`, the T/C under setting [1] is 102 % of control, the T/C under setting [2] is 104 % of control and the T/C under setting [3] is 102 % of control.

`C[NH-].C[NH-].[I][Pt+2][I]`: the T/C was 118 % of control (dose: 12.0 mg/kg/injection, schedule: Q04DX003 (ip), vehicle: other); 113 % of control (dose: 17.0 mg/kg/injection, schedule: Q04DX003 (ip), vehicle: other); 102 % of control (dose: 18.0 mg/kg/injection, schedule: Q04DX003 (ip), vehicle: water); 108 % of control (dose: 25.0 mg/kg/injection, schedule: Q04DX003 (ip), vehicle: other); 102 % of control (dose: 25.0 mg/kg/injection, schedule: Q04DX003 (ip), vehicle: water); 111 % of control (dose: 37.0 mg/kg/injection, schedule: Q04DX003 (ip), vehicle: other). Moreover, the T/C reads like this: (dose: 37.0 mg/kg/injection, schedule: Q04DX003 (ip), vehicle: water) 115 % of control; (dose: 44.0 mg/kg/injection, schedule: Q01DX001 (ip), vehicle: other) 113 % of control; (dose: 50.0 mg/kg/injection, schedule: Q04DX003 (ip), vehicle: other) 110 % of control; (dose: 67.0 mg/kg/injection, schedule: Q01DX001 (ip), vehicle: other) 114 % of control; under setting [10], 120 % of control.

As for `CCOC(=O)C1C(=O)C=C(C)C(C(=O)OCC)C1c1ccc(N(C)C)cc1` (stereo unspecified), the T/C is, setting by setting: (dose: 25.6 mg/kg/injection, schedule: Q04DX002 (ip), vehicle: saline with Tween-80) 92 % of control; (dose: 64.0 mg/kg/injection, schedule: Q04DX002 (ip), vehicle: saline with Tween-80) 96 % of control; (dose: 160.0 mg/kg/injection, schedule: Q04DX002 (ip), vehicle: saline with Tween-80) 92 % of control; (dose: 400.0 mg/kg/injection, schedule: Q04DX002 (ip), vehicle: saline with Tween-80) 103 % of control.

In the case of `O=C(O)CNS(=O)(=O)c1ccccc1`, the T/C reads like this: under setting [7], 97 % of control; under setting [8], 101 % of control; under setting [9], 89 % of control.

Regarding `COC(=O)CCC(=O)c1cccc2ccccc12`, the T/C (dose: 100.0 mg/kg/injection, schedule: Q04DX003 (ip), vehicle: acetone) is 91 % of control; the T/C (dose: 200.0 mg/kg/injection, schedule: Q04DX003 (ip), vehicle: acetone) was 96 % of control; the T/C (dose: 400.0 mg/kg/injection, schedule: Q04DX003 (ip), vehicle: acetone) was 95 % of control.

As to `C/C=C/CS(=O)(=O)Cc1ccccc1`, the T/C reads like this: under setting [4], 103 % of control; under setting [5], 95 % of control; under setting [6], 103 % of control.

Consider `O=C(Nc1ccc(C(=O)c2ccccc2)cc1)c1ccc(C(=O)Nc2ccc(C(=O)c3ccccc3)cc2)cc1`, for which the T/C under setting [10] is 93 % of control; the T/C (dose: 200.0 mg/kg/injection, schedule: Q01DX001 (ip), vehicle: other) is 86 % of control; the T/C (dose: 400.0 mg/kg/injection, schedule: Q01DX001 (ip), vehicle: other) is 89 % of control.

As to `O=[N+]([O-])c1cc(S(=O)(=O)F)cc(Cl)c1O`, the T/C runs as follows: (dose: 100.0 mg/kg/injection, schedule: Q01DX009 (ip), vehicle: Klucel (hydroxypropylcellulose) (HPC)) 97 % of control; (dose: 200.0 mg/kg/injection, schedule: Q01DX009 (ip), vehicle: Klucel (hydroxypropylcellulose) (HPC)) 89 % of control.
